Assays:
Format in all cases: cell-based
[1] = test system: PI-resistant HIV-1 strain 11800; assay: microbe, parasite or virus in culture; conditions: Human immunodeficiency virus 1, TZM-bl
[2] = test system: NRTI-resistant HIV-1 strain 7396; assay: microbe, parasite or virus in culture; conditions: Human immunodeficiency virus 1, TZM-bl
[3] = test system: NRTI-resistant HIV-1 strain 7407; assay: microbe, parasite or virus in culture; conditions: Human immunodeficiency virus 1, TZM-bl
[4] = test system: PI-resistant HIV-1 strain 11803; assay: microbe, parasite or virus in culture; conditions: Human immunodeficiency virus 1, TZM-bl
[5] = test system: NRTI-resistant HIV-1 strain 7406; assay: microbe, parasite or virus in culture; conditions: Human immunodeficiency virus 1, TZM-bl
HIV-1NL4-3 = assay: HIV-1 infectivity in TZM-bl cells (β-gal activity); conditions: Human immunodeficiency virus 1, TZM-bl, 48 h, read-out: EC50 (β-gal)
Experimental: (C) TZM-bl cells were infected with the HIV-1NL4-3 strain at an MOI of 1 upon treatment of compounds. At 48 h after infection, the viral infectivity and cell viability were determined as described above (Fig. 1). […] (E) TZM-bl cells were infected with the HIV-1NL4-3 at an MOI of 1 upon compound 13. At 48 h after infection, the β-gal activity indicating viral infectivity was determined using the β-gal Enzyme Assay kit. […] (C and E) The dose-response curves show the relative activity compared with that of the DMSO vehicle (mean ± SD; n = 3).
The TZM-bl cells (also referred to as JC53BL-13) expressing human CD4, CXCR4, and CCR5 carrying the F-Luc and lacZ genes downstream of the HIV-1 LTR promoter ([60]) were used to determine the inhibitory effect of the compounds on HIV-1 infection, as previously described ([11], [12], [61]). In brief, 1 × 10^4 cells were cultured in 96-well plates for 24 h and subsequently treated with compounds at the indicated concentrations. […] After 48 h, the inhibitory effect of the compounds was determined using a Bright Glo luciferase assay kit (Promega) or β-Galactosidase Enzyme Assay kit (Promega). […] Cell viability was determined using the resazurin-based PrestoBlue Cell Viability Reagent (Thermo Fisher Scientific, Waltham, MA, USA) following the manufacturer’s instructions.

SMILES | EC50 [1] [nM] | EC50 [2] [nM] | EC50 [3] [nM] | EC50 [4] [nM] | EC50 [5] [nM] | EC50 (HIV-1NL4-3) [nM]
Cc1[nH]c2ccc(-c3nnc(SCC(=O)N4CCCCC4)o3)cc2c1C [Compound 9, 2-((5-(2,3-Dimethyl-1H-indol-5-yl)-1,3,4-oxadiazol-2-yl)thio)-1-(piperidin-1-yl)ethan-1-one] | 80 ± 10 | 70 | 70 ± 10 | 70 ± 10 | 90 ± 10 | 
Cc1[nH]c2ccc(-c3nnc(SCC(=O)N4CCCC4)o3)cc2c1C [Compound 13, 2-((5-(2,3-Dimethyl-1H-indol-5-yl)-1,3,4-oxadiazol-2-yl)thio)-1-(pyrrolidin-1-yl)ethan-1-one] | 130 ± 100 | 150 ± 10 | 190 ± 10 | 160 ± 20 | 160 ± 20 | 220 ± 30
